Measurements taken from patent US9580409B2, “Modulators of opioid receptors and methods of use thereof” (priority 2011, dated 2017).

Target: mu-opioid receptor (Homo sapiens, UniProt P35372)
Experiment: biochemical
Details: […]; class symbol combines EC50 and efficacy; read-out: GTP Activity

Sequence of mu-opioid receptor (P35372 whole entry, species assumed): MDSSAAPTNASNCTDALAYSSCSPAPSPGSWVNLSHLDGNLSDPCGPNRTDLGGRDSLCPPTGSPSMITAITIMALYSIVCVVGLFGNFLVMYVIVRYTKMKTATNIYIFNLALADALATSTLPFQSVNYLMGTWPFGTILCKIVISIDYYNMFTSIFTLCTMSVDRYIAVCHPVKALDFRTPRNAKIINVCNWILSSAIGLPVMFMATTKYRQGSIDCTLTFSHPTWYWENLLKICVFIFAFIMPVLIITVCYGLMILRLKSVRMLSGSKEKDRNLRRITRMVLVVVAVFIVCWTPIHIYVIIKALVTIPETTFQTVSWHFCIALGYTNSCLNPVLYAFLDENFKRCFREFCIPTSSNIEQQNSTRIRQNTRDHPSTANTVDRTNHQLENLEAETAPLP

| SMILES | EC50 [µM] |
| --- | --- |
| CNC1=C(c2nc3ccccc3[nH]2)C(=O)C2(CCC(=O)C2)N1c1cc(OC)cc(OC)c1 (stereo not drawn) [compound 312] | < 0.1 |
| CNC1=C(c2nc3ccccc3[nH]2)C(=O)C(C)(CCNC(C)=O)N1c1cc(OC)cc(OC)c1 (stereo not drawn) [compound 284] | < 0.1 |
| CNc1c(-c2nc3ccccc3[nH]2)c(=O)n(CCCO)n1-c1cc(OC)cc(OC)c1 [compound 267] | < 0.1 |
| COc1cc(OC)cc(N2C(N)=C(c3nc4ccccc4[nH]3)C(=O)C2CCCO)c1 (stereo not drawn) [compound 221] | 0.1 to 1 |
| CNC1=C(c2nc3ccccc3[nH]2)C(=O)C(C)(CC(C)=O)N1c1cc(OC)cc(OC)c1 (stereo not drawn) [compound 276] | 0.1 to 1 |
| COc1cc(OC)cc(N2C(N)=C(c3nc4ccccc4[nH]3)C(=O)[C@]23C[C@H](O)C3)c1 [compound 258] | 0.1 to 1 |
| COCCC1(C)C(=O)C(c2nc3ccccc3[nH]2)=C(N)N1c1cc(OC)cc(OC)c1 (stereo not drawn) [compound 219] | 0.1 to 1 |
| COc1cc(OC)cc(N2C(N)=C(c3nc4ccccc4[nH]3)C(=O)C23CCCOC3)c1 (stereo not drawn) [compound 295] | 0.1 to 1 |
| COc1cc(OC)cc(N2C(N)=C(c3nc4ccccc4[nH]3)C(=O)C2(C)c2cccc(O)c2)c1 (stereo not drawn) [compound 210] | 1 to 10 |
| COc1cc(OC)cc(N2C(N)=C(c3nc4ccccc4[nH]3)C(=O)C2CCNc2ccccc2)c1 (stereo not drawn) [compound 232] | 0.1 to 1 |
| CNC1=C(c2nc3ccccc3[nH]2)C(=O)C2(CNC(=O)C2)N1c1cc(OC)cc(OC)c1 (stereo not drawn) [compound 274] | 0.1 to 1 |
| CNC1=C(c2nc3ccccc3[nH]2)C(=O)[C@]2(C[C@H](O)C2)N1c1cc(OC)cc(OC)c1 [compound 260] | 0.1 to 1 |
| CNC1=C(c2nc3ccccc3[nH]2)C(=O)C(C)(CCO)N1c1cc(OC)cc(OC)c1 (stereo not drawn) [compound 217] | < 0.1 |
| CNC1=C(c2nc3ccccc3[nH]2)C(=O)C2(CC(=O)C2)N1c1cc(OC)cc(OC)c1 [compound 275] | < 0.1 |
| CNC1=C(c2nc3ccccc3[nH]2)C(=O)[C@@](C)(COC)N1c1cc(OC)cc(OC)c1 [compound 298] | < 0.1 |
| CNC1=C(c2nc3ccccc3[nH]2)C(=O)C(C)(Cc2ccco2)N1c1cc(OC)cc(OC)c1 (stereo not drawn) [compound 280] | 0.1 to 1 |
| CNC1=C(c2nc3ccccc3[nH]2)C(=O)[C@](C)(COC)N1c1cc(OC)cc(OC)c1 [compound 297] | 0.1 to 1 |
| CNC1=C(c2nc3ccccc3[nH]2)C(=O)[C@@](C)(CO)N1c1cc(OC)cc(OC)c1 [compound 211] | 0.1 to 1 |
| CNC1=C(c2nc3ccccc3[nH]2)C(=O)C(C)(C(C)=O)N1c1cc(OC)cc(OC)c1 (stereo not drawn) [compound 277] | 0.1 to 1 |
| CNC1=C(c2nc3ccccc3[nH]2)C(=O)C2(CCC(O)C2)N1c1cc(OC)cc(OC)c1 (stereo not drawn) [compound 311] | < 0.1 |
| CCC(=O)N1CC2(C1)C(=O)C(c1nc3ccccc3[nH]1)=C(N)N2c1cc(OC)cc(OC)c1 [compound 249] | 1 to 10 |
| COc1cc(OC)cc(N2C(N)=C(c3nc4ccccc4[nH]3)C(=O)C2(C)c2ccc(O)cc2)c1 (stereo not drawn) [compound 209] | 1 to 10 |

| SMILES | EC50 [µM] |
| --- | --- |
| COc1cc(OC)cc(N2C(N)=C(c3nc4ccccc4[nH]3)C(=O)C23CN(S(C)(=O)=O)C3)c1 [compound 251] | 0.1 to 1 |
| CNC1=C(c2nc3ccccc3[nH]2)C(=O)C(C)(CCOC)N1c1cc(OC)cc(OC)c1 (stereo not drawn) [compound 220] | < 0.1 |
| CNC1=C(c2nc3ccccc3[nH]2)C(=O)C2(CCOCC2)N1c1cc(OC)cc(OC)c1 [compound 226] | 0.1 to 1 |
| COc1cc(OC)cc(N2C(N)=C(c3nc4ccccc4[nH]3)C(=O)[C@]2(C)CCNC(C)=O)c1 [compound 301] | 0.1 to 1 |
| CNC1=C(c2nc3ccccc3[nH]2)C(=O)C(C)(CC(C)O)N1c1cc(OC)cc(OC)c1 (stereo not drawn) [compound 309] | < 0.1 |
| CNc1c(-c2nc3ccccc3[nH]2)c(=O)n(C2COC2)n1-c1cc(OC)cc(OC)c1 [compound 270] | < 0.1 |
| CNC1=C(c2nc3ccccc3[nH]2)C(=O)C(C)(CCNC(=O)COC)N1c1cc(OC)cc(OC)c1 (stereo not drawn) [compound 286] | < 0.1 |
| COc1cc(OC)cc(N2C(N)=C(c3nc4ccccc4[nH]3)C(=O)C2CCN(C)C)c1 (stereo not drawn) [compound 222] | 1 to 10 |
| CNc1c(-c2nc3ccccc3[nH]2)c(=O)n(CCOC)n1-c1cc(OC)cc(OC)c1 [compound 266] | < 0.1 |
| CNC1=C(c2nc3ccccc3[nH]2)C(=O)C(CCN)N1c1cc(OC)cc(OC)c1 (stereo not drawn) [compound 253] | 0.1 to 1 |
| COc1cc(OC)cc(N2C(N)=C(c3nc4ccccc4[nH]3)C(=O)C2CCN(C)C(=O)c2ccccc2)c1 (stereo not drawn) [compound 257] | 0.1 to 1 |
| COc1cc(OC)cc(N2C(N)=C(c3nc4ccccc4[nH]3)C(=O)C2CCc2ccccc2)c1 (stereo not drawn) [compound 229] | 1 to 10 |
| COc1cc(OC)cc(N2C(N)=C(c3nc4ccccc4[nH]3)C(=O)C2CCN)c1 (stereo not drawn) [compound 238] | 1 to 10 |
| CNC1=C(c2nc3ccccc3[nH]2)C(=O)[C@@H](CNC(=O)COC)N1c1cc(OC)cc(OC)c1 [compound 316] | < 0.1 |
| CNC1=C(c2nc3ccccc3[nH]2)C(=O)C(CO)(CCl)N1c1cc(OC)cc(OC)c1 (stereo not drawn) [compound 264] | 0.1 to 1 |
| CNC1=C(c2nc3ccccc3[nH]2)C(=O)[C@@]2(CCCOC2)N1c1cc(OC)cc(OC)c1 [compound 306] | 0.1 to 1 |
| COc1cc(OC)cc(N2C(N)=C(c3nc4ccccc4[nH]3)C(=O)C23CN(C(=O)c2ccccc2)C3)c1 [compound 250] | 1 to 10 |
| COc1cc(OC)cc(N2C(N)=C(c3nc4ccccc4[nH]3)C(=O)C2CC(=O)O)c1 (stereo not drawn) [compound 244] | 1 to 10 |
| COc1cc(OC)cc(N2C(N)=C(c3nc4ccccc4[nH]3)C(=O)[C@]23C[C@@H](O)C3)c1 [compound 206] | 0.1 to 1 |
| CNC1=C(c2nc3ccccc3[nH]2)C(=O)C2(CCCN(C(C)=O)C2)N1c1cc(OC)cc(OC)c1 (stereo not drawn) [compound 273] | 0.1 to 1 |
| CNC1=C(c2nc3ccccc3[nH]2)C(=O)C2(CC(O)C2)N1c1cc(OC)cc(OC)c1 (stereo not drawn) [compound 259] | < 0.1 |
| CNc1c(-c2nc3ccccc3[nH]2)c(=O)n(C2CCC2)n1-c1cc(OC)cc(OC)c1 [compound 269] | 0.1 to 1 |

Same assay, conditions: class symbols; read-out: GTP Activity

| SMILES | EC50 [µM] |
| --- | --- |
| CNc1c(-c2nc3ccccc3[nH]2)c(=O)n(C)n1-c1cc(OC)cc(OC)c1 [compound 140] | < 0.1 |
| CCc1cc(OC)cc(N2C(N)=C(c3nc4ccccc4[nH]3)C(=O)C2(C)C)c1 [compound 155] | 0.1 to 1 |
| COc1cc(OC)cc(N2C(N)=C(c3nc4ccccc4[nH]3)C(=O)C2O)c1 (stereo not drawn) [compound 57] | 0.1 to 1 |
| CC[C@@H]1C(=O)C(c2nc3ccccc3[nH]2)=C(NC)N1c1cc(OC)cc(OC)c1 [compound 184] | 0.1 to 1 |
| CNC1=C(c2nc3ccccc3[nH]2)C(=O)C2(CNC2)N1c1cc(OC)cc(OC)c1 [compound 192] | 0.1 to 1 |
| COc1cc(OC)cc(N2C(N)=C(c3nc4ccccc4[nH]3)C(=O)[C@@H]2C)c1 [compound 83] | 1 to 10 |
| COc1cc(OC)cc(N2C(N)=C(c3nc4ccccc4[nH]3)C(=O)C2(C)OC)c1 (stereo not drawn) [compound 119] | 1 to 10 |
| COc1cc(OC)cc(N2C(N)=C(c3nc4ccccc4[nH]3)C(=O)C23CCNC3)c1 (stereo not drawn) [compound 182] | 0.1 to 1 |
| CNC1=C(c2nc3ccccc3n2C)C(=O)C(C)(C)N1c1cc(OC)cc(OC)c1 [compound 81] | 0.1 to 1 |
| COC(=O)C1C(=O)C(c2nc3ccccc3[nH]2)=C(N)N1c1cc(OC)cc(OC)c1 (stereo not drawn) [compound 134] | 1 to 10 |
| CCOc1cc(OC)cc(N2C(N)=C(c3nc4ccccc4[nH]3)C(=O)C2(C)C)c1 [compound 157] | 0.1 to 1 |
| COc1cc(OC)cc(N2CC(=O)C(c3nc4cscc4[nH]3)=C2N)c1 [compound 173] | 1 to 10 |
| COc1cc(OC)cc(N2C(N)=C(c3nc4ccccc4[nH]3)C(=O)C23COC3)c1 [compound 191] | 0.1 to 1 |
| [2H]C([2H])([2H])Oc1cc(OC([2H])([2H])[2H])cc(N2C(N)=C(c3nc4ccccc4[nH]3)C(=O)C2(C)C)c1 [compound 135] | 0.1 to 1 |
| COc1ccc(OC)c(N2CC(=O)C(c3nc4c(C)cccc4[nH]3)=C2N)c1 [compound 16] | 1 to 10 |
| COc1ccc(OC)c(N2C(N)=C(c3nc4ccccc4[nH]3)C(=O)C2(C)C)c1 [compound 165] | 1 to 10 |

| SMILES | EC50 [µM] |
| --- | --- |
| CC[C@@]1(C)C(=O)C(c2nc3ccccc3[nH]2)=C(N)N1c1cc(OC)cc(OC)c1 [compound 85] | 0.1 to 1 |
| C=CCNC1=C(c2nc3ccccc3[nH]2)C(=O)C(C)(C)N1c1cc(OC)cc(OC)c1 [compound 122] | 0.1 to 1 |
| COc1cc(OC)cc(N2CC(=O)C(c3nc4c(F)cccc4[nH]3)=C2N)c1 [compound 11] | 1 to 10 |
| CC1(C)C(=O)C(c2nc3ccccc3[nH]2)=C(N)N1c1cc(Cl)cc(Cl)c1 [compound 159] | 1 to 10 |
| COc1cc(OC)cc(-n2c(NO)c(-c3nc4ccccc4[nH]3)c(=O)n2C)c1 [compound 143] | 1 to 10 |
| COc1cc(OC)cc(N2C(N)=C(c3nc4ccccc4[nH]3)C(=O)C23CC3)c1 [compound 131] | 1 to 10 |
| COc1cc(OC)cc(N2C(N)=C(c3nc4ccccc4[nH]3)C(=O)C2(C)O)c1 (stereo not drawn) [compound 112] | 0.1 to 1 |
| COc1cc(OC)cc(-n2c(N)c(-c3nc4ccccc4[nH]3)c(=N)n2C)c1 [compound 110] | 0.1 to 1 |
| COc1cc(OC)cc(N2C(N)=C(c3nc4ccccc4[nH]3)C(=O)C23CCN(C)C3)c1 (stereo not drawn) [compound 183] | 1 to 10 |
| COc1cccc(N2C(N)=C(c3nc4ccccc4[nH]3)C(=O)C2(C)C)c1 [compound 163] | 1 to 10 |
| COc1cc(OC)cc(N2C(NCC3CC3)=C(c3nc4ccccc4[nH]3)C(=O)C2(C)C)c1 [compound 125] | 1 to 10 |
| COc1cc(OC)cc(N2C(N)=C(c3nc4ccccc4[nH]3)C(=O)C23CN(C)C3)c1 [compound 190] | 1 to 10 |
| Cc1cc(C)cc(N2C(N)=C(c3nc4ccccc4[nH]3)C(=O)C2(C)C)c1 [compound 102] | 0.1 to 1 |
| COc1cc(OC)cc(N2C(Nc3ccccc3)=C(c3nc4ccccc4[nH]3)C(=O)C2(C)C)c1 [compound 126] | 1 to 10 |
| COCCC1C(=O)C(c2nc3ccccc3[nH]2)=C(N)N1c1cc(OC)cc(OC)c1 (stereo not drawn) [compound 69] | 0.1 to 1 |
